Molecular target: T1, human gastrin (CCK2) receptors (Homo sapiens, UniProt P32239)
T1 construct: amplified by PCR (polymerase chain reaction) from the start codon to the stop codon; expressed in transfected cells
T1 sequence (P32239 1-447): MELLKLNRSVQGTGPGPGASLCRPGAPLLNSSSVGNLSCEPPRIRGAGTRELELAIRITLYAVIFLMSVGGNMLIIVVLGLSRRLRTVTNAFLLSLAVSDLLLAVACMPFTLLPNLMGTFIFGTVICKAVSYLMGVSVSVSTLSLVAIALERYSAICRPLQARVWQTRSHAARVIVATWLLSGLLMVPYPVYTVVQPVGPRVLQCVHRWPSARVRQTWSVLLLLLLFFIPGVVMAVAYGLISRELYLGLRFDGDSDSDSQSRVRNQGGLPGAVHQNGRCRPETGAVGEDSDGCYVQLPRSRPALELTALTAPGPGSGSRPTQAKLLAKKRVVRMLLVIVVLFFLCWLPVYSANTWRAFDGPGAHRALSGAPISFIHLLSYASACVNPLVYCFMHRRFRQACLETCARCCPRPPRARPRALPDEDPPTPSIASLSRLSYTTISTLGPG
Experiment: Displacement of [125I]-BH-CCK-8S from human CCK2 receptors cloned into NIH3T3 cells (membranes)
Assay type: binding
Details: hCCK2 receptor, NIH3T3 clone 7 membranes, [125I]-BH-CCK-8S 200 pM, 150 min at 21° C.; ± s.e. mean; read-out: CCK2 (pKI) (converted)
Experimental: A number of compounds were tested at human gastrin (CCK2) receptors which have been cloned into an NIH3T3 cell line as follows:
Stable clones expressing hCCK2R were screened for their ability to specifically bind [^125I]-BH-CCK-8S in tissue concentration curve studies (0.3×10^4-1×10^6 cells per tube) using the assay conditions described below. […] In addition there was a direct linear correlation between the amount of specific bound label and the cell concentration up to and including 2.5×10^5 cells per ml. Based on the above, this clone was chosen for expansion and fall binding characterisation.
Cultured clone 7 cells were stored as frozen pellets at −70° C. until required. Cell pellets were thawed in CCK2 assay buffer ((mM): 10 Hepes; 130 NaCl; 5 MgCl2; 4.7 KCl; 1 EGTA (pH7.2 at 21° C.) with 0.125 g Bacitracin added to each litre), and homogenised using a Polytron (4×1 s). The resulting membrane preparation was centrifuged at 39,800 g for 15 min at 4° C. Each cell pellet was re-suspended in fresh buffer and re-centriflged as above. The final pellet was re-suspended by homogenisation (Teflon-in-glass), to the appropriate membrane concentration.
For saturation and competition studies, the cell membranes prepared as in step d (3×10^4 cells per 400 μl) were incubated for 150 min at 21° C. in a final volume of 0.5 ml with CCK2 assay buffer containing [^125I]-BH-CCK-8S (50 μl; 200 pM). Total and non-specific binding of [^125I]-BH-CCK-8S were defined, respectively using 50 μl of buffer and 50 μl of 10 μM YM022. The assays were terminated by rapid filtration through pre-soaked Whatman GF/B filters which were washed (3×3 ml) with ice-cold 50 mM Tris HCl (pH7.4 @ 4° C.). Filters were transferred to plastic gamma counter vials and bound radioactivity determined by counting (1 min) in a Clini-gamma counter.
The binding of [^125I]-BH-CCK-8S to the hCCK2 receptor isoform was saturable. […] Saturation data were analysed using the curve-fitting programmes, Radlig and Ligand.
A number of compounds of the invention as well as reference compounds were tested for their ability to displace [^125I]-BH-CCK-8S from the receptors prepared as above. Briefly, dilution and addition of test compounds, radioligand and cell membranes were performed using a Beckman Biomek 2000. The ability of compounds to inhibit the specific binding of to hCCK2 receptors was determined in triplicate over a range of concentrations at half-log intervals. Total and non-specific binding was determined for each compound. Each compound was tested in a minimum of three experiments. Competition data were fitted to the Hill equation using Graph-pad Prism software to obtain estimates of the IC50 (mid-point location parameter) and nH (mid-point slope parameter). Dissociation constants (KI) were determined using the Cheng & Prusoff equation (1973) to correct for the receptor occupancy by the radioligand. All compounds were dissolved in DMF to give a stock concentration of either 1 or 10 mM and subsequent dilutions were made in assay buffer.

| Ki [nM] | SMILES |
| --- | --- |
| 0.501 | O=C(CN1NC(C2CCCCC2)c2ccccc2N(CC(=O)C2CCCC2)C1=O)Nc1cccc(-c2nnn[nH]2)c1 (racemic) [Example 15, (+/−)2-[5-Cyclohexyl-1-(2-cyclopentyl-2-oxo-ethyl)-2-oxo-1,2,4,5-tetrahydro-3H-1,3,4-benzotriazepin-3-yl]-N-[3-(2H-tetrazol-5-yl)-phenyl]-acetamide] |
| 7.76 | CC1(C(=O)CN2C(=O)N(CC(=O)Nc3cccc(C(=O)O)c3)NC(C3CCCCC3)c3ccccc32)CCCCC1 (racemic) [Example 8, (+/−)-3-(2-{5-Cyclohexyl-1-[2-(1-methyl-cyclohexyl)-2-oxo-ethyl]-2-oxo-1,2,4,5-tetrahydro-3H-1,3,4-benzotriazepin-3-yl}-acetylamino)-benizoic acid] |
| 12.6 | O=C(CN1NC(C2CCCCC2)c2ccccc2N(CC(=O)C2CCCC2)C1=O)Nc1cccc(C(=O)O)c1 (single isomer, unassigned; (+)) [Example 11, (+)-3-{2-[5-Cyclohexyl-1-(2-cyclopentyl-2-oxo-ethyl)-2-oxo-1,2,4,5-tetrahydro-3H-1,3,4-benzotriazepin-3-yl]-acetylamino}-benzoic acid] |
| 0.0794 | O=C(CN1NC(C2CCCCC2)c2ccccc2N(CC(=O)C2CCCC2)C1=O)Nc1cccc(-c2nc(=O)o[nH]2)c1 (racemic) [Example 16, (+/−)-2-[5-Cyclohexyl-1-(2-cyclopentyl-2-oxo-ethyl)-2-oxo-1,2,4,5-tetrahydro-3H-1,3,4-benzotriazepin-3-yl]-N-[3-(5-oxo-2,5-dihydro-[1,2,4]oxadiazol-3-yl)-phenyl]-acetamide] |
| 3.98 | O=C(O)Cc1cccc(NC(=O)CN2NC(C3CCCCC3)c3ccccc3N(CC(=O)C3CCCCC3)C2=O)c1 (single isomer, unassigned; (+)) [Example 13, (+)-(3-{2-[5-Cyclohexyl-1-(2-cyclohexyl-2-oxo-ethyl)-2-oxo-1,2,4,5-tetrahydro-3H-1,3,4-benzotriazepin-3-yl]-acetylamino}-phenyl)-acetic acid] |
| 0.1 | O=C(O)Cc1cccc(NC(=O)CN2NC(C3CCCCC3)c3ccccc3N(CC(=O)C3CCCCC3)C2=O)c1 (single isomer, unassigned; (-)) [Example 14, (−)-(3-{2-[5-Cyclohexyl-1-(2-cyclohexyl-2-oxo-ethyl)-2-oxo-1,2,4,5-tetrahydro-3H-1,3,4-benzotriazepin-3-yl]-acetylamino}-phenyl)-acetic acid] |
| 2.24 | O=C(CN1NC(C2CCCCC2)c2ccccc2N(CC(=O)C2CCCCC2)C1=O)Nc1cccc(C(=O)O)c1 (racemic) [Example 9, (+/−)-3-{2-[5-Cyclohexyl-1-(2-cyclohexyl-2-oxo-ethyl)-2-oxo-1,2,4,5-tetrahydro-3H-1,3,4-benzotriazepin-3-yl]-acetylamino}-benzoic acid] |
| 0.363 | O=C(O)Cc1cccc(NC(=O)CN2NC(C3CCCCC3)c3ccccc3N(CC(=O)C3CCCCC3)C2=O)c1 (racemic) [Example 10, (+/−)-(3-{2-[5-Cyclohexyl-1-(2-cyclohexyl-2-oxo-ethyl)-2-oxo-1,2,4,5-tetrahydro-3H-1,3,4-benzotriazepin-3-yl]-acetylamino}-phenyl)-acetic acid] |
| 1.58 | O=C(CN1NC(C2CCCCC2)c2ccccc2N(CC(=O)C2CCCC2)C1=O)Nc1cccc(C(=O)O)c1 (single isomer, unassigned; (-)) [Example 12, (−)-3-{2-[5-Cyclohexyl-1-(2-cyclopentyl-2-oxo-ethyl)-2-oxo-1,2,4,5-tetrahydro-3H-1,3,4-benzotriazepin-3-yl]-acetylamino}-benzoic acid] |

The remaining lines, values behind:

| SMILES | Ki [nM] |
| --- | --- |
| O=C(O)CCc1cccc(NC(=O)CN2NC(C3CCCCC3)c3ccccc3N(CC(=O)C3CCCC3)C2=O)c1 (racemic) [Example 6, (+/−)-3-(3-(2-[5-Cyclohexyl-1-(2-cyclopenlyl-2-oxo-ethyl)-2-oxo-1,2,4,5tetrahydro-3H-1,3,4-benzotriazepin-3-yl]-acetylamino}-phenyl)-propionic acid] | 0.759 |
| CNc1cccc(NC(=O)CN2NC(C3CCCCC3)c3ccccc3N(CC(=O)C3CCCC3)C2=O)c1 (racemic) [Example 7, (+/−)-2-[5-Cyclohexyl-1-(2-cyclopentyl-2-oxo-ethyl)-2-oxo-1,2,4,5-tetrahydro-3H-1,3,4-benzotriazepin-3-yl]-N-(3-methylamino-phenyl)-acetamide] | 2.63 |
| CC(C)(C)C(=O)CN1C(=O)N(CC(=O)Nc2cccc(C(=O)O)c2)NC(C2CCCCC2)c2ccccc21 (racemic) [Example 1, (+/−)-3-{2-[5-Cyclohexyl-1-(3,3-dimethyl-2-oxo-butyl)-2-oxo-1,2,4,5-tetrahydro-3H-1,3,4-benzotriazepin-3-yl]-acetylamino)-benzoic acid] | 17.8 |
| Cc1cccc(NC(=O)CN2NC(C3CCCCC3)c3ccccc3N(CC(=O)C(C)(C)C)C2=O)c1 (racemic) [Example 3, (+/−)-2-[5-Cyclohexyl-1-(3,3-dimethyl-2-oxo-butyl)-2-oxo-1,2,4,5-tetrahydro-3H-3H-1,3,4-benzotriazepin-3-yl]-N-m-tolyl-acetamide] | 44.7 |
| O=C(O)Cc1cccc(NC(=O)CN2NC(C3CCCCC3)c3ccccc3N(CC(=O)C3CCCC3)C2=O)c1 (racemic) [Example 5, (+/−)-(3-{2-[5-Cyclohexyl-1-(2-cyclopentyl-2-oxo-ethyl)-2-oxo-1,2,4,5-tetrahydro-3H-1,3,4-benzotriazepin-3-yl]-acetylamino}-phenyl)-acetic acid] | 79.4 |
| O=C(CN1NC(C2CCCCC2)c2ccccc2N(CC(=O)C2CCCC2)C1=O)Nc1cccc(C(=O)O)c1 (racemic) [Example 4, (+/−)-3-{2-[5-Cyclohexyl-1-(2-cyclopentyl-2-oxo-ethyl)-2-oxo-1,2,4,5-tetrahydro-3H-1,3,4-benzotriazepin-3-yl]-acetylamino}-benzoic acid] | 1.48 |
| CNc1cccc(NC(=O)CN2NC(C3CCCCC3)c3ccccc3N(CC(=O)C(C)(C)C)C2=O)c1 (racemic) [Example 2, (+/−)-2-[5-Cyclohexyl-1-(3,3-dimethyl-2-oxo-butyl)-2-oxo-1,2,4,5-tetrahydro-3H-1,3,4-benzotriazepin-3-yl]-N-(3-methylamino-phenyl)-acetamide] | 16.2 |
